From US9067922B2, “Chemical compounds” (Pfizer Limited, priority 2013, dated 2015)

Target: URAT-1 transporter (Homo sapiens (Human), UniProt Q96S37)
Experiment: URAT-1 inhibitor activity: [14C]-uric acid uptake in CHO-URAT1(L)GFP#8 (CHO#8) cells, scintillation proximity
Format: cell-based
Conditions: inhibition of [14C]-uric acid (30 nM) uptake into CHO#8 cells; compound 0 to 10 μM; 4 parameter logistic fit
Description: The nucleotide sequence for the long isoform of URAT1 (NM_144585) was C-terminally fused to that of enhanced green fluorescent protein (eGFP) (hereinafter referred to as URAT1(L)GFP). The combined sequence was codon-optimised and custom synthesized. The synthesized sequence was generated in pDONR221 Gateway entry vector (Invitrogen Life Technologies) prior to cloning in pLenti6.3/V5 Gateway destination vector (Invitrogen Life Technologies).
Lentiviral particles were generated according to ViraPower HiPerform expression system procedure (Invitrogen Life Technologies) and used to transduce CHO cells. […] The clonal pools were sorted using fluorescence-activated cell sorting (FACS) on the basis of GFP expression with the gating set at the top 50% of expression into single cells which were subsequently expanded to generate clonal lines. […] This cell line was used for all screening activities and is referred to as CHO-URAT1(L)GFP#8 or CHO#8.
The potency of the compounds of formula (I) as inhibitors of the URAT-1 transporter was determined as follows.
CHO#8 cells were cultured in cell line maintenance flasks in medium consisting of Dulbecco's modified Eagle medium (DMEM) with high glucose and sodium pyruvate (4.5 g of glucose per liter, Invitrogen Life Technologies), supplemented with heat-inactivated foetal bovine serum (FBC, 10% v/v), 1×NEAA (non-essential amino acids) and blasticidin (10 μg/ml). Cultures were grown in 175 cm^2 tissue culture flasks in a humidified incubator at approximately 37° C. in approximately 95% air/5% CO2. Near confluent CHO#8 cell cultures were harvested by trypsinisation, re-suspended in culture medium and the process was repeated once or twice weekly to provide sufficient cells for use.
Assay ready flasks were generated by the same method, except the cells were not cultured in blasticidin.
Assay ready frozen cells were generated by freezing 40,000,000 cells in 1 ml of FBS (without blasticidin) containing 10% DMSO per vial. One vial was sufficient for 5 assay plates. Each vial was thawed rapidly to 37° C., washed and re-suspended in pre-warmed culture medium for seeding onto assay plates.
CHO#8 cells were seeded onto Cytostar™ 96-well plates at a density of […]. The cells were cultured for 1 day at approximately 37° C. in a humidified incubator containing approximately 5% CO2 in air. After approximately 24 hours culture, cells were used for uptake experiments.
On the day of assay, culture medium was removed from the wells and the cells were washed once with 50 μL of chloride-containing buffer (136.7 mM NaCl, 5.36 mM KCl, 0.952 mM CaCl2, 0.441 mM KH2PO4, 0.812 mM MgSO4, 5.6 mM D-glucose, 0.383 mM Na2HPO4.2H2O, 10 mM HEPES, pH 7.4 with NaOH). The cells were pre-incubated with another 50 μL of chloride-containing buffer for one hour at approximately 37° C. in a humidified incubator containing approximately 5% CO2 in air.
Assay compound plates were prepared by diluting the compounds of formula (I) with chloride-free buffer (125 mM Na-gluconate, 4.8 mM K-gluconate, 1.3 mM Ca-gluconate, 1.2 mM KH2PO4, 1.2 mM MgSO4, 5.6 mM D-glucose, 25 mM HEPES, pH 7.4 with NaOH) in 100% DMSO to a final concentration of 1% DMSO. [^14C]-Uric Uric acid working stock was made by addition of radiolabeled compound to a final concentration of 120 nM in chloride-free buffer. In all wells, the final assay concentration of solvent (DMSO) was 0.25%; the final assay concentration of [^14C]-uric acid was 30 nM in chloride-free buffer and the final compound of formula (I) concentrations ranged from 0 to 10 μM.
After pre-incubation, cells were washed with 50 μL of chloride-free buffer and another 50 μL of chloride-free buffer was added.

URAT-1 transporter, sequence (Q96S37 other isoform, or with tags, fused parts or gaps): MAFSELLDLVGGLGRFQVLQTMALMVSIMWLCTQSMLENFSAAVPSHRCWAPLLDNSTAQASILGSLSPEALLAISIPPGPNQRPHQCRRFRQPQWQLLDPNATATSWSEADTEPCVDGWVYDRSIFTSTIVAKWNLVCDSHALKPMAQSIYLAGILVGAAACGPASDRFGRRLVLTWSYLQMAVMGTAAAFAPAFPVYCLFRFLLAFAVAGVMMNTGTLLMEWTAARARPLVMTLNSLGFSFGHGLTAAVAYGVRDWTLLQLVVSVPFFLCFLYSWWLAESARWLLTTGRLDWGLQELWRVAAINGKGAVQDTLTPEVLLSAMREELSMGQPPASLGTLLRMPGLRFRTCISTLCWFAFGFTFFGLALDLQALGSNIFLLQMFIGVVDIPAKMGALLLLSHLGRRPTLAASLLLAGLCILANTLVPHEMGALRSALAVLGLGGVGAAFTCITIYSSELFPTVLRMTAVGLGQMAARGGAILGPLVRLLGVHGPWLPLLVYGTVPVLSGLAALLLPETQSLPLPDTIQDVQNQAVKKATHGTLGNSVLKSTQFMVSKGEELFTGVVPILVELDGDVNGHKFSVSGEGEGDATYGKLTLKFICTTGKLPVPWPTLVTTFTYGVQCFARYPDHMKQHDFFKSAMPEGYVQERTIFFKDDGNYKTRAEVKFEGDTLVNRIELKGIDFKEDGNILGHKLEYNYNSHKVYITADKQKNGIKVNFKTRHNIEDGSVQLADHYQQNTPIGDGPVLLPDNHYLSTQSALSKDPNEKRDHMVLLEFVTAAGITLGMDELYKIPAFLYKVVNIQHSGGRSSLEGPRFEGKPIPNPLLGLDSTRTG

Structure (SMILES) | IC50 [nM]
N#Cc1cc(Oc2ccc(S(=O)(=O)Nc3ccc(F)cn3)cc2C#N)ccc1Cl [Example 60, 4-(4-chloro-3-cyanophenoxy)-3-cyano-N-(5-fluoropyridin-2-yl)benzenesulfonamide] | 92
N#Cc1ccc(Oc2ccc(S(=O)(=O)Nc3ccc(F)cn3)cc2C#N)c(OC(F)F)c1 [Example 67, 3-cyano-4-[4-cyano-2-(difluoromethoxy)phenoxy]-N-(5-fluoropyridin-2-yl)benzenesulfonamide] | 3520
Cc1ccccc1Oc1ccc(S(=O)(=O)Nc2ccc(F)cn2)cc1C#N [Example 186, 3-cyano-N-(5-fluoropyridin-2-yl)-4-(2-methylphenoxy)benzenesulfonamide] | 324
Cc1ccc(Oc2ccc(S(=O)(=O)Nc3ccc(F)cn3)cc2C#N)cc1Cl [Example 22, 4-(3-chloro-4-methylphenoxy)-3-cyano-N-(5-fluoropyridin-2-yl)benzenesulfonamide] | 209
N#Cc1cc(S(=O)(=O)Nc2ccc(F)cn2)ccc1Oc1cccc(Cl)c1 [Example 25, 4-(3-chlorophenoxy)-3-cyano-N-(5-fluoropyridin-2-yl)benzenesulfonamide] | 86
N#Cc1c(Cl)cccc1Oc1ccc(S(=O)(=O)Nc2ccncc2)cc1 [Example 217, 4-(3-chloro-2-cyanophenoxy)-N-(pyridin-4-yl)benzenesulfonamide] | > 10000
O=S(=O)(Nc1cccnn1)c1ccc(Oc2ccc(Cl)cc2OC(F)F)c(Cl)c1 [Example 84, 3-chloro-4-[4-chloro-2-(difluoromethoxy)phenoxy]-N-(pyridazin-3-yl)benzenesulfonamide] | > 8870
N#Cc1cc(S(=O)(=O)Nc2ccc(F)cn2)ccc1Oc1ccc(C(F)(F)F)nc1 [Example 196, 3-cyano-N-(5-fluoropyridin-2-yl)-4-{[6-(trifluoromethyl)pyridin-3-yl]oxy}benzenesulfonamide] | > 10000
Cc1ccc(C(C)C)cc1Oc1ccc(S(=O)(=O)Nc2ccc(F)cn2)cc1C#N [Example 174, 3-cyano-N-(5-fluoropyridin-2-yl)-4-[2-methyl-5-(propan-2-yl)phenoxy]benzenesulfonamide] | > 10000
N#Cc1ccc(Oc2cc(F)c(S(=O)(=O)Nc3cccnn3)cc2Cl)cc1Cl [compound 227] | > 10000
Cc1cccnc1NS(=O)(=O)c1ccc(Oc2ccc(C#N)c(Cl)c2)c(C#N)c1 [Example 101, 4-(3-chloro-4-cyanophenoxy)-3-cyano-N-(3-methylpyridin-2-yl)benzenesulfonamide] | 594
COc1ccc(C)cc1Oc1ccc(S(=O)(=O)Nc2ccc(F)cn2)cc1C#N [Example 155, 3-cyano-N-(5-fluoropyridin-2-yl)-4-(2-methoxy-5-methylphenoxy)benzenesulfonamide] | 191
N#Cc1ccc(Oc2ccc(S(=O)(=O)Nc3cncnc3)cc2C#N)cc1Cl [Example 96, 4-(3-chloro-4-cyanophenoxy)-3-cyano-N-(pyrimidin-5-yl)benzenesulfonamide] | > 10000
COc1ccc(F)cc1Oc1ccc(S(=O)(=O)Nc2ccc(F)cn2)cc1C#N [Example 120, 3-cyano-4-(5-fluoro-2-methoxyphenoxy)-N-(5-fluoropyridin-2-yl)benzenesulfonamide] | > 10000
N#Cc1cc(S(=O)(=O)Nc2ccc(F)cn2)ccc1Oc1cc(F)c(F)cc1F [Example 130, 3-cyano-N-(5-fluoropyridin-2-yl)-4-(2,4,5-trifluorophenoxy)benzenesulfonamide] | 119
N#Cc1cc(S(=O)(=O)Nc2ccc(F)cn2)ccc1Oc1ccc(F)cc1Cl [Example 31, 4-(2-chloro-4-fluorophenoxy)-3-cyano-N-(5-fluoropyridin-2-yl)benzenesulfonamide] | 78
Cc1cc(Oc2ccc(S(=O)(=O)Nc3ccc(F)cn3)cc2C#N)cc(C)c1Cl [Example 149, 4-(4-chloro-3,5-dimethylphenoxy)-3-cyano-N-(5-fluoropyridin-2-yl)benzenesulfonamide] | 95

Structure (SMILES) | IC50 [nM]
N#Cc1ccc(Oc2ccc(S(=O)(=O)Nc3ncccc3F)cc2C#N)cc1Cl [Example 103, 4-(3-chloro-4-cyanophenoxy)-3-cyano-N-(3-fluoropyridin-2-yl)benzenesulfonamide] | 145
Cc1ccc(Oc2ccc(S(=O)(=O)Nc3ccc(F)cn3)cc2C#N)c(Cl)c1 [Example 42, 4-(2-chloro-4-methylphenoxy)-3-cyano-N-(5-fluoropyridin-2-yl)benzenesulfonamide] | 383
COc1cccnc1NS(=O)(=O)c1ccc(Oc2ccc(C#N)c(Cl)c2)c(C#N)c1 [Example 102, 4-(3-chloro-4-cyanophenoxy)-3-cyano-N-(3-methoxypyridin-2-yl)benzenesulfonamide] | 3130
CN(C)c1cccc(Oc2ccc(S(=O)(=O)Nc3ccc(F)cn3)cc2C#N)c1 [Example 131, 3-cyano-4-[3-(dimethylamino)phenoxy]-N-(5-fluoropyridin-2-yl)benzenesulfonamide] | > 10000
Cc1cc(Cl)ccc1Oc1ccc(S(=O)(=O)Nc2ccc(F)cn2)cc1C#N [Example 5, 4-(4-chloro-2-methylphenoxy)-3-cyano-N-(5-fluoropyridin-2-yl)benzenesulfonamide] | 148
COc1ccncc1Oc1ccc(S(=O)(=O)Nc2ccc(F)cn2)cc1C#N [Example 190, 3-cyano-N-(5-fluoropyridin-2-yl)-4-[(4-methoxypyridin-3-yl)oxy]benzenesulfonamide] | > 10000
COc1ccc(Oc2ccc(S(=O)(=O)Nc3ccc(F)cn3)cc2C#N)c(Cl)c1 [Example 168, 4-(2-chloro-4-methoxyphenoxy)-3-cyano-N-(5-fluoropyridin-2-yl)benzenesulfonamide] | 612
Cc1cc(Oc2ccc(S(=O)(=O)Nc3ccc(F)cn3)cc2C#N)ccc1Cl [Example 34, 4-(4-chloro-3-methylphenoxy)-3-cyano-N-(5-fluoropyridin-2-yl)benzenesulfonamide] | 80
N#Cc1cc(S(=O)(=O)Nc2ccc(F)cn2)ccc1Oc1cccc(C(F)(F)F)c1 [Example 23, 3-cyano-N-(5-fluoropyridin-2-yl)-4-[3-(trifluoromethyl)phenoxy]benzenesulfonamide] | > 10000
Cc1ccc(F)c(Oc2ccc(S(=O)(=O)Nc3ccc(F)cn3)cc2C#N)c1F [Example 119, 3-cyano-4-(2,6-difluoro-3-methylphenoxy)-N-(5-fluoropyridin-2-yl)benzenesulfonamide] | 90
N#Cc1cc(Oc2ccc(S(=O)(=O)Nc3ncccn3)cc2C#N)ccc1F [compound 209] | > 10000
N#Cc1cc(S(=O)(=O)Nc2ccc(F)cn2)ccc1Oc1cccnc1 [Example 194, 3-cyano-N-(5-fluoropyridin-2-yl)-4-(pyridin-3-yloxy)benzenesulfonamide] | > 10000
N#Cc1cc(S(=O)(=O)Nc2ccc(F)cn2)ccc1Oc1ccc(F)c(Cl)c1Cl [Example 38, 3-cyano-4-(2,3-dichloro-4-fluorophenoxy)-N-(5-fluoropyridin-2-yl)benzenesulfonamide] | 55
N#Cc1cc(S(=O)(=O)Nc2ccc(F)cn2)ccc1Oc1ccc(C#N)c(C2CC2)c1 [Example 203, 3-cyano-4-(4-cyano-3-cyclopropylphenoxy)-N-(5-fluoropyridin-2-yl)benzenesulfonamide] | 37
COc1cccc(C)c1Oc1ccc(S(=O)(=O)Nc2ccc(F)cn2)cc1C#N [Example 115, 3-cyano-N-(5-fluoropyridin-2-yl)-4-(2-methoxy-6-methylphenoxy)benzenesulfonamide] | 24
N#Cc1c(Cl)cccc1Oc1ccc(S(=O)(=O)Nc2ccccn2)cc1 [Example 218, 4-(3-chloro-2-cyanophenoxy)-N-(pyridin-2-yl)benzenesulfonamide] | > 10000
